{"source": "the supplement of paper PMC11208160", "data": [{"test": "recombinant UMI read abundance after kanamycin selection (control-corrected) (log10(CPM+1)); higher = more efficient recombination; extreme values may be limits of the assay; sequences stand for … in AGTGCAGAGAAAATCGGCCAGTTTTCTCTGCCTGCAGTCCGCATGCCGTGGGACCCCTTGGGTTCTAACCTGTTGCCTAGATTTATGCAGCGGACTGCCTTTCTCCCAAAGTGATAAACCGG…AGGTTGGTTTCACT; site = the 11-nt donor", "outline": "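Sequencing read counts were converted to CPM, averaged over two replicates and scaled by control-derived factors. Results are given as log10(CPM+1). The reads covered the donor–target junction of recombinant UMIs from a pooled Escherichia coli screen of donor and donor-binding-loop pairs for the IS621 bridge recombinase.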", "values": [{"sequence": "CGGGAGTCATGGACCGGTTTTCCCGGTAATCCGTATTTGCA (site CGGGAGTCTCG)", "recombinant UMI read abundance (log10)": 2.73}, {"sequence": "ACAGTATCATGGACCGGTTTTCCCGGTAATCCGTATTTGGA (site ACAGTATCTTA)", "recombinant UMI read abundance (log10)": 2.36}, {"sequence": "TAGACTACATGGACCGGTTTTCCCGGTAATCCGTATTTGCA (site TAGATTACTTG)", "recombinant UMI read abundance (log10)": 0.502}, {"sequence": "CGAAGTGCATGGACCGGTTTTCCCGGTAATCCGTATTTGCC (site CGAAGTGCTGG)", "recombinant UMI read abundance (log10)": 0.751}, {"sequence": "TCATAGGCATGGACCGGTTTTCCCGGTAATCCGTATTTGAG (site TCATAGGCTCT)", "recombinant UMI read abundance (log10)": 1.46}, {"sequence": "GTGGAGGCATGGACCGGTTTTCCCGGTAATCCGTATTTGTG (site GTGGAGGCTAA)", "recombinant UMI read abundance (log10)": 0.431}, {"sequence": "CTGCCCTCATGGACCGGTTTTCCCGGTAATCCGTATTTGTT (site CTGCCCTCTAA)", "recombinant UMI read abundance (log10)": 2.18}, {"sequence": "CAAGCAGCATGGACCGGTTTTCCCGGTAATCCGTATTTGCT (site CAAGCATCTAG)", "recombinant UMI read abundance (log10)": 0.937}, {"sequence": "AAAAGAACATGGACCGGTTTTCCCGGTAATCCGTATTTGAA (site AAAAGAACTTT)", "recombinant UMI read abundance (log10)": 2.03}, {"sequence": "CTAGTATCATGGACCGGTTTTCCCGGTAATCCGTATTTGAC (site CGAGTATCTAT)", "recombinant UMI read abundance (log10)": 0}, {"sequence": "AGGACGACATGGACCGGTTTTCCCGGTAATCCGTATTTGCA (site AGGACGACTTG)", "recombinant UMI read abundance (log10)": 2.51}, {"sequence": "AGGAAGGCATGGACCGGTTTTCCCGGTAATCCGTATTTGCT (site AGGAAGACTTG)", "recombinant UMI read abundance (log10)": 0.296}, {"sequence": "CAGTCGACATGGACCGGTTTTCCCGGTAATCCGTATTTGTG (site CAGTCGACTCA)", "recombinant UMI read abundance (log10)": 0.661}, {"sequence": "CGATCGACATGGACCGGTTTTCCCGGTAATCCGTATTTGTC (site CGATCGACTTA)", "recombinant UMI read abundance (log10)": 0}, {"sequence": "CCCGGACCATGGACCGGTTTTCCCGGTAATCCGTATTTGCA (site CCCGGGCCTTG)", "recombinant UMI read abundance (log10)": 0}, {"sequence": "ACACGTACATGGACCGGTTTTCCCGGTAATCCGTATTTGGG (site ACACGTACTCC)", "recombinant UMI read abundance (log10)": 0.42}, {"sequence": "CACTTTGCATGGACCGGTTTTCCCGGTAATCCGTATTTGGA (site CACTTCGCTTC)", "recombinant UMI read abundance (log10)": 0.0129}, {"sequence": "CCGTCGACATGGACCGGTTTTCCCGGTAATCCGTATTTGGG (site CAGTCGACTCC)", "recombinant UMI read abundance (log10)": 0.01}, {"sequence": "CTGTTACCATGGACCGGTTTTCCCGGTAATCCGTATTTGCT (site CTGTTACCTAG)", "recombinant UMI read abundance (log10)": 0}, {"sequence": "CGTCTGTCATGGACCGGTTTTCCCGGTAATCCGTATTTGAC (site CGTCTGTCTGT)", "recombinant UMI read abundance (log10)": 0}, {"sequence": "CTAGTATCATGGACCGGTTTTCCCGGTAATCCGTATTTGAC (site CTACCATCTGT)", "recombinant UMI read abundance (log10)": 0}, {"sequence": "CGTTCATCATGGACCGGTTTTCCCGGTAATCCGTATTTGCC (site CGATCATCTAG)", "recombinant UMI read abundance (log10)": 0}, {"sequence": "AGATCTTCATGGACCGGTTTTCCCGGTAATCCGTATTTGCT (site AGATCTTCTAG)", "recombinant UMI read abundance (log10)": 1.45}, {"sequence": "ATCCAAGCATGGACCGGTTTTCCCGGTAATCCGTATTTGAG (site ATCAAAGCTCT)", "recombinant UMI read abundance (log10)": 0.429}, {"sequence": "GTTGTTCCATGGACCGGTTTTCCCGGTAATCCGTATTTGGT (site GTGGTTCCTAC)", "recombinant UMI read abundance (log10)": 0.508}, {"sequence": "CTAGTATCATGGACCGGTTTTCCCGGTAATCCGTATTTGAC (site CTAGGATCTAT)", "recombinant UMI read abundance (log10)": 0.00421}, {"sequence": "CAATGCGCATGGACCGGTTTTCCCGGTAATCCGTATTTGAA (site CAATGCGCTTT)", "recombinant UMI read abundance (log10)": 1.9}, {"sequence": "CTGCTACCATGGACCGGTTTTCCCGGTAATCCGTATTTGCA (site CTGCTACCTTG)", "recombinant UMI read abundance (log10)": 0}, {"sequence": "CCTAAGGCATGGACCGGTTTTCCCGGTAATCCGTATTTGAT (site CCTAAAGCTAT)", "recombinant UMI read abundance (log10)": 0}, {"sequence": "CAGAATCCATGGACCGGTTTTCCCGGTAATCCGTATTTGTT (site CCGAATCCTAA)", "recombinant UMI read abundance (log10)": 0}, {"sequence": "TGGCGGGCATGGACCGGTTTTCCCGGTAATCCGTATTTGGC (site TGGCCGGCTGC)", "recombinant UMI read abundance (log10)": 0.00581}, {"sequence": "AATTATGCATGGACCGGTTTTCCCGGTAATCCGTATTTGGC (site AATTATGCTTC)", "recombinant UMI read abundance (log10)": 0.332}, {"sequence": "AGCGTAACATGGACCGGTTTTCCCGGTAATCCGTATTTGAC (site AGCGTAACTGT)", "recombinant UMI read abundance (log10)": 2.86}, {"sequence": "CTTCTCTCATGGACCGGTTTTCCCGGTAATCCGTATTTGTC (site CTTCTCTCTAA)", "recombinant UMI read abundance (log10)": 1.6}, {"sequence": "CTAGTATCATGGACCGGTTTTCCCGGTAATCCGTATTTGAC (site CTAGTCTCTGT)", "recombinant UMI read abundance (log10)": 1.18}, {"sequence": "GTTGTTCCATGGACCGGTTTTCCCGGTAATCCGTATTTGGT (site GTTGTTCCTAC)", "recombinant UMI read abundance (log10)": 0.00461}, {"sequence": "TGCCACACATGGACCGGTTTTCCCGGTAATCCGTATTTGAG (site TGCCACACTCT)", "recombinant UMI read abundance (log10)": 0.305}, {"sequence": "CGGGAGTCATGGACCGGTTTTCCCGGTAATCCGTATTTGCA (site CGGGAGTCTTG)", "recombinant UMI read abundance (log10)": 2.89}, {"sequence": "TCACTCGCATGGACCGGTTTTCCCGGTAATCCGTATTTGAA (site TCACTCGCTTT)", "recombinant UMI read abundance (log10)": 1.86}, {"sequence": "AACTCGCCATGGACCGGTTTTCCCGGTAATCCGTATTTGCT (site AACTCGCCTAG)", "recombinant UMI read abundance (log10)": 1.56}, {"sequence": "GATTATCCATGGACCGGTTTTCCCGGTAATCCGTATTTGCC (site GATTATCCTTG)", "recombinant UMI read abundance (log10)": 0}, {"sequence": "TCCGGGTCATGGACCGGTTTTCCCGGTAATCCGTATTTGAC (site GGAATCGCTAG)", "recombinant UMI read abundance (log10)": 0}, {"sequence": "ACCTGATCATGGACCGGTTTTCCCGGTAATCCGTATTTGAT (site ACCTGATCTAT)", "recombinant UMI read abundance (log10)": 0.427}, {"sequence": "GTGGCACCATGGACCGGTTTTCCCGGTAATCCGTATTTGCA (site GCGGCACCTTG)", "recombinant UMI read abundance (log10)": 0}, {"sequence": "ATCTATACATGGACCGGTTTTCCCGGTAATCCGTATTTGAA (site ATCTATACTGT)", "recombinant UMI read abundance (log10)": 0}, {"sequence": "CAGTGCTCATGGACCGGTTTTCCCGGTAATCCGTATTTGAA (site CAATGCTCTTT)", "recombinant UMI read abundance (log10)": 1.35}, {"sequence": "GTCTATACATGGACCGGTTTTCCCGGTAATCCGTATTTGAC (site ATCTATACTGT)", "recombinant UMI read abundance (log10)": 0.841}, {"sequence": "GGAGTGGCATGGACCGGTTTTCCCGGTAATCCGTATTTGGC (site GGAGTGGCTTC)", "recombinant UMI read abundance (log10)": 0.328}, {"sequence": "CAATTCCCATGGACCGGTTTTCCCGGTAATCCGTATTTGCT (site CAATTACCTAG)", "recombinant UMI read abundance (log10)": 0}, {"sequence": "CTAGTATCATGGACCGGTTTTCCCGGTAATCCGTATTTGAC (site CTAATAACTGT)", "recombinant UMI read abundance (log10)": 0}, {"sequence": "GCCTTCTCATGGACCGGTTTTCCCGGTAATCCGTATTTGGG (site CCCTTCTCTCC)", "recombinant UMI read abundance (log10)": 0.0122}, {"sequence": "ATCAGGCCATGGACCGGTTTTCCCGGTAATCCGTATTTGAC (site ATTAGGCCTGT)", "recombinant UMI read abundance (log10)": 0}, {"sequence": "ATAAGCCCATGGACCGGTTTTCCCGGTAATCCGTATTTGAC (site ATAAGTCCTGT)", "recombinant UMI read abundance (log10)": 0.889}, {"sequence": "ACGTTCCCATGGACCGGTTTTCCCGGTAATCCGTATTTGTG (site ATGTTCCCTCA)", "recombinant UMI read abundance (log10)": 0.0196}, {"sequence": "ACTAGTGCATGGACCGGTTTTCCCGGTAATCCGTATTTGGA (site ACTAGTGCTGC)", "recombinant UMI read abundance (log10)": 0}, {"sequence": "GGAGTCGCATGGACCGGTTTTCCCGGTAATCCGTATTTGGT (site GGAGTTGCTAC)", "recombinant UMI read abundance (log10)": 0.00431}, {"sequence": "ATCCAAGCATGGACCGGTTTTCCCGGTAATCCGTATTTGAG (site ATCCATGCTCT)", "recombinant UMI read abundance (log10)": 0.0106}, {"sequence": "TTTGCGGCATGGACCGGTTTTCCCGGTAATCCGTATTTGCT (site TCTGCGGCTAG)", "recombinant UMI read abundance (log10)": 0}, {"sequence": "ACACATCCATGGACCGGTTTTCCCGGTAATCCGTATTTGTC (site ACACATCCTGG)", "recombinant UMI read abundance (log10)": 0}, {"sequence": "CCGTTTTCATGGACCGGTTTTCCCGGTAATCCGTATTTGCT (site CCGTTTACTAG)", "recombinant UMI read abundance (log10)": 0}, {"sequence": "TGATACTCATGGACCGGTTTTCCCGGTAATCCGTATTTGCA (site TCATACTCTTG)", "recombinant UMI read abundance (log10)": 1.29}, {"sequence": "TAACAACCATGGACCGGTTTTCCCGGTAATCCGTATTTGTT (site TAACAACCTAA)", "recombinant UMI read abundance (log10)": 0.06}, {"sequence": "AAGCACGCATGGACCGGTTTTCCCGGTAATCCGTATTTGGT (site AAGCACGCTAC)", "recombinant UMI read abundance (log10)": 1.48}, {"sequence": "CTAATATCATGGACCGGTTTTCCCGGTAATCCGTATTTGTC (site CTAATATCTGA)", "recombinant UMI read abundance (log10)": 2.49}, {"sequence": "CATTGCTCATGGACCGGTTTTCCCGGTAATCCGTATTTGAA (site CACTGCTCTTT)", "recombinant UMI read abundance (log10)": 0.00354}, {"sequence": "TCGGAGACATGGACCGGTTTTCCCGGTAATCCGTATTTGAT (site TCGGAGACTAT)", "recombinant UMI read abundance (log10)": 1.93}, {"sequence": "TAGAAAACATGGACCGGTTTTCCCGGTAATCCGTATTTGCA (site TAGAAGACTTG)", "recombinant UMI read abundance (log10)": 0.00894}, {"sequence": "CTACTAACATGGACCGGTTTTCCCGGTAATCCGTATTTGGC (site CTACTAACTTC)", "recombinant UMI read abundance (log10)": 1.31}, {"sequence": "TTGCTAGCATGGACCGGTTTTCCCGGTAATCCGTATTTGAA (site TCGCTAGCTTT)", "recombinant UMI read abundance (log10)": 0.0147}, {"sequence": "ACCTTCTCATGGACCGGTTTTCCCGGTAATCCGTATTTGGG (site GCCTTCTCTCC)", "recombinant UMI read abundance (log10)": 0.00741}, {"sequence": "AACGTGTCATGGACCGGTTTTCCCGGTAATCCGTATTTGTT (site AACGTGTCTAA)", "recombinant UMI read abundance (log10)": 2.59}, {"sequence": "ACGAGTTCATGGACCGGTTTTCCCGGTAATCCGTATTTGGA (site ACGAGTTCTTC)", "recombinant UMI read abundance (log10)": 2.41}, {"sequence": "GCGAAGCCATGGACCGGTTTTCCCGGTAATCCGTATTTGGG (site ACGAAGCCTCC)", "recombinant UMI read abundance (log10)": 0.0189}, {"sequence": "CAGCTAGCATGGACCGGTTTTCCCGGTAATCCGTATTTGAA (site TAGCTAGCTTT)", "recombinant UMI read abundance (log10)": 0.596}, {"sequence": "AGGTTGCCATGGACCGGTTTTCCCGGTAATCCGTATTTGTG (site AGGTTTCCTCA)", "recombinant UMI read abundance (log10)": 0.00563}]}]}
